The values below come from ChEMBL document CHEMBL1121491, “Ultraviolet photoelectron spectroscopy of cyclic amidines. 2. Electronic structure of clonidine and some related 2-(phenylimino)imidazolidines with alpha-adrenergic activity” (1980).

This experiment deals with Rattus norvegicus. In words: Hypotensive activity by intravenous administration to rats. Type of experiment: functional.
`c1cc2c(c(NC3=NCCN3)c1)CCCC2` [TRAMAZOLINE] yielded a Log 1/ED50 of 0.47.

In turn, `Clc1cccc(Cl)c1NC1=NCCN1` [CLONIDINE] showed a Log 1/ED50 of 1.99.

Molecule `Cc1ccccc1N=C1NCCN1` returned a Log 1/ED50 of -0.67.

The molecule `Cc1cccc(C)c1N=C1NCCN1` came in with a Log 1/ED50 of 0.85.

`Clc1ccccc1N=C1NCCN1` had a Log 1/ED50 of 0.13.

Consider `c1ccc(NC2=NCCN2)cc1`, for which the Log 1/ED50 is -2.1.

With `Fc1cccc(F)c1N=C1NCCN1`, the Log 1/ED50 was -0.41.
